Patent US20240174596A1 (Northwestern University, priority 2021, published 2024)
Where a name gives a salt, the structure may show the parent alone.

Tests used:
Ala-AT = Ala-AT (Sus scrofa, UniProt P13191); assay: Inhibition of Ala-AT; type: biochemical, porcine; settings: up to 10 mM
Method: All reagents for enzyme purification and assays were purchased from Sigma-Aldrich (St. Louis, MO, USA). […] All the enzyme assays for the inactivation, partition ratio, and dialysis experiment were recorded on a Synergy H1 hybrid multimode microplate reader (Biotek, USA) with transparent 96-well plates.
potassium phosphate at pH 7.4, 5.55 mM α-ketoglutarate, 1.11 mM NADH, 5.55 mM […], 5.55 units of malic dehydrogenase, and various concentrations of SS-1-148. […] The plate was shaken at room temperature for 1 min, and the absorbance was measured at 340 nm every 10 s for 90 min based on the conversion of NADH to NAD^+. The remaining Asp-AT activity percentage was calculated according to the corresponding concentrations. […]

[1] = Plasma protein binding, mouse; type: in vitro ADME
CYP 2D6 = CYP 2D6 (Homo sapiens, UniProt P10635); assay: CYP inhibition 2D6; type: in vitro ADME
Chain of CYP 2D6 (P10635 whole entry): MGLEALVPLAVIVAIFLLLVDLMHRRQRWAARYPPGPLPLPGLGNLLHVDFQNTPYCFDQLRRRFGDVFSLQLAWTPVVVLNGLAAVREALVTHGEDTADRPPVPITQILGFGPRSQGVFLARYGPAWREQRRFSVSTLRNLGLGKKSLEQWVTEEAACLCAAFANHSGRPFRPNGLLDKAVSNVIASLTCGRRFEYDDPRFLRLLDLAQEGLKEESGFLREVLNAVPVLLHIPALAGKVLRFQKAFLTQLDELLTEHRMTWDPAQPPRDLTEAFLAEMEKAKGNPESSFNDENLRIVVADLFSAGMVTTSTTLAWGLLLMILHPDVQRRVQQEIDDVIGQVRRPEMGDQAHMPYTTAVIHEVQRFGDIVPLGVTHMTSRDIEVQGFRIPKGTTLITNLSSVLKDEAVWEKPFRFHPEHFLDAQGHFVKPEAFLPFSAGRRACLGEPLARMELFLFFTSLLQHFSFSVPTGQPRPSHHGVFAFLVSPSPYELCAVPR

hOAT [2] = biological target: T1, hOAT (Homo sapiens, UniProt P04181); assay: Fluoride ion release assay; type: biochemical
T1 construct: made in house; host or cells: E. coli BL21(DE3)
T1 sequence (P04181 26-439): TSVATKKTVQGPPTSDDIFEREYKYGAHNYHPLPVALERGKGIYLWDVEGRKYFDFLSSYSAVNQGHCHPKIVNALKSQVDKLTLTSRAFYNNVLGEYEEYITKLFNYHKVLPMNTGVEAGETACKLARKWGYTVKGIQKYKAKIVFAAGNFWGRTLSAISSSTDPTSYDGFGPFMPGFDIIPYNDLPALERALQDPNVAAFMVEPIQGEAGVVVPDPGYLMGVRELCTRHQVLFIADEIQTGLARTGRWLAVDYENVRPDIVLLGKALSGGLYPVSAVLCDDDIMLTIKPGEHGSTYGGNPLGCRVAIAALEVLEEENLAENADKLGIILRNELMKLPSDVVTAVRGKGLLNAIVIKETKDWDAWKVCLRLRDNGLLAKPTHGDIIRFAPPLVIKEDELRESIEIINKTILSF
Method: The fluoride ion release assay was conducted using previous protocols.^10 The final concentration of enzyme in the sample was determined via BCA protein assay kit (Pierce, cat: 23225). A calibration curve of voltage (V, mV) was generated from varying concentrations of NaF (F, μM). For accurate detection of fluoride ion concentration, 10 μM of fluoride ion was added to each control and sample The number of fluoride ions released per active site was calculated by the ratio of the fluoride ion release concentration and enzyme concentration.

[3] = Liver microsomal stability, human; type: in vitro ADME
Plasma PK profiles = type: in vivo
hOAT [4] = biological target: T1, hOAT; assay: Time-dependent inactivation of hOAT; type: biochemical
Method: All reagents for enzyme purification and assays were purchased from Sigma-Aldrich (St. Louis, MO, USA). Human OAT (0.672 mg/mL) was purified from E. coli BL21 (DE3) cells following the procedure described above, and coenzyme human recombinant pyrroline 5-carboxylate reductase (PYCRI) were expressed, grown, and purified according to a literature procedure.^4 γ-Aminobutyric acid aminotransferase (GABA-AT, 0.4 mg/mL) was purified from pig brain following a procedure described previously^5, and coenzyme succinic semialdehyde dehydrogenase (SSDH) was purified from GABase (catalog No. G7509-25UN, Sigma-Aldrich), a commercially available mixture of SSDH and GABA-AT, using a known procedure.^6 Commercially available L-aspartate aminotransferase (Asp-AT) from the porcine heart (catalog No. G2751-2KU, Sigma-Aldrich) and the desired assay coenzyme malic dehydrogenase from porcine (catalog No. M2634-5KU, Sigma-Aldrich), and L-alanine aminotransferase (Ala-AT) from the porcine heart (catalog No. G8255-200UN, Sigma-Aldrich) and the desired assay coenzyme lactate dehydrogenase from porcine (catalog No. 427211-50KU, Sigma-Aldrich) were used directly without further purification. All the enzyme assays for the inactivation, partition ratio, and dialysis experiment were recorded on a Synergy H1 hybrid multimode microplate reader (Biotek, USA) with transparent 96-well plates.
Time-dependent inactivation against hOAT was performed using an optimized procedure published previously.^7 10 μL of hOAT (0.025 mg/mL) was preincubated with 10 μL of various concentrations of tested compounds in 100 mM potassium pyrophosphate buffer (pH 8.0, 5 mM α-ketoglutarate, and 5 mM β-mercaptoethanol) at 25° C. in a 96-well plate. At time intervals, 80 μL of assay solution containing PYCR^1 (0.5 μg), 1 mM NADH, and 25 mM L-ornithine in the abovementioned potassium pyrophosphate buffer were added to the incubation mixture and assayed for OAT activity at 37° C. for 30 min. The change in UV absorbance at 340 nm at 37° C. based on the conversion of NADH to NAD was monitored by a microplate reader. All assays were performed in duplicate, and the remaining OAT activity at each preincubation time at each inhibitor concentration was averaged. The natural logarithm of the percentage of the remaining OAT activity was plotted against the preincubation time at each inhibitor concentration to obtain the kobs (slope) value for each concentration. The kobs value is the rate constant describing the inactivation at each inhibitor concentration. kobs is replotted against the inhibitor concentration using nonlinear regression analysis using GraphPad Prism 8.0. K1 and kinact values were estimated from equation (1)
where kinact is the maximal rate of inactivation, K1 is the inhibitor concentration required for half-maximal inactivation, and [I] is the preincubation concentration of the tested compound.

hERG = hERG (Homo sapiens, UniProt Q12809); assay: hERG test; type: in vitro ADME
Chain of hERG (Q12809 whole entry): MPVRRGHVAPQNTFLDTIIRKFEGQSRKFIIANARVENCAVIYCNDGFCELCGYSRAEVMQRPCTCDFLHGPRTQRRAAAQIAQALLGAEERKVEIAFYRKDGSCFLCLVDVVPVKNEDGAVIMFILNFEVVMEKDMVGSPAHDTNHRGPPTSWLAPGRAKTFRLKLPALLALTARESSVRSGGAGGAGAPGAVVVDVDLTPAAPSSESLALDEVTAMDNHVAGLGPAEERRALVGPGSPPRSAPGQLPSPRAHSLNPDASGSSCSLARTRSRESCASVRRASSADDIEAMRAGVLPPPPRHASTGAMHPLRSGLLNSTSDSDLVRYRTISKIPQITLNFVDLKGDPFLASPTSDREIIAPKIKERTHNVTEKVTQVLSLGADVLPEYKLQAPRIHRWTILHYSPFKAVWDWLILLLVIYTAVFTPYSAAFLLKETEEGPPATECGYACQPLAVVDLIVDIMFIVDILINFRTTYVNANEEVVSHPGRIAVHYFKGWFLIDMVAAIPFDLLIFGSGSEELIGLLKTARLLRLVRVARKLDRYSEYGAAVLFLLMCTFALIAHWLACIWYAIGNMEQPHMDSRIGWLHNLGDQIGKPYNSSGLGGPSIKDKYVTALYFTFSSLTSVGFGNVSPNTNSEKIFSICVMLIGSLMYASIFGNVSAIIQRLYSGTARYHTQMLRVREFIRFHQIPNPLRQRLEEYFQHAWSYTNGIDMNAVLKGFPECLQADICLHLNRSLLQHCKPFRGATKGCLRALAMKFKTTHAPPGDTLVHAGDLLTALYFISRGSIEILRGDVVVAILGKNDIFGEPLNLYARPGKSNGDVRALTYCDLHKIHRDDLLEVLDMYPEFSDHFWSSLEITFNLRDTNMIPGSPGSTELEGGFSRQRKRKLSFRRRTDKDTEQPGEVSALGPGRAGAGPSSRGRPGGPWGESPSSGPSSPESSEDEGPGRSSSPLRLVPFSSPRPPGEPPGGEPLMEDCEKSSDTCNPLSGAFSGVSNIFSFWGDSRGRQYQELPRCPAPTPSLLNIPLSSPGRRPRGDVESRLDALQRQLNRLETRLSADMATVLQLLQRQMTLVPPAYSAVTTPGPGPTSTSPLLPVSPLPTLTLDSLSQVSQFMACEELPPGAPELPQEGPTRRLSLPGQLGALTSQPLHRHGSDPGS

Chain of Ala-AT (P13191 whole entry): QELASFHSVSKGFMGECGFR

## N[C@H]1C=C(C(=O)O)CC1(F)F [SS-1-148, (S)-3-Amino-4,4-difluorocyclopent-1-enecarboxylic acid hydrochloric acid salt]
Ala-AT
  inhibition on Ala-AT: did not show noticeable inhibition
[1]
  fraction unbound: 1
CYP 2D6
  IC50: > 100 µM
hOAT [2]
  fluoride ion released per inactivation event: 33.9±0.8 equivalents
hOAT [2]; without α-KG, triplicate, mean with standard deviation
  Fluoride ion release: 33.9 ± 0.8
[3]
  Liver microsomal stability (t1/2) Human: N/C
Plasma PK profiles; IV (5 mg/kg)
  AUC(0-inf): 1160 ng·h/mL
  AUC(0-t): 1150 ng·h/mL
  Cmax: 4680 ng/mL
  T1/2: 0.43 H
  clearance: 72 mL/min/kg
Plasma PK profiles; IV (5 mg/kg), read-out: Vss
  Vd: 1.01 L/kg
Plasma PK profiles; PO (30 mg/kg)
  AUC(0-inf): 8530 ng·h/mL
  AUC(0-t): 8440 ng·h/mL
  Cmax: 8080 ng/mL
  Tmax: 15 min
  bioavailability: ~100%
hOAT [4]
  improvement of inactivation efficiency (kinact/K1) relative to parent compound 4: 444 fold
  type of inhibition on hOAT: irreversible inhibitor
hOAT [4]; inactivation efficiency
  kinact/KI: 22.2 M⁻¹ s⁻¹
hOAT [4]; mean and standard error
  kinact: 0.00133 s⁻¹
hERG
  IC50: > 30 µM
